In patent US12377069B2, “Compounds, compositions, methods of using, and methods for preparing compounds” (UNIVERSITY OF LOUISVILLE RESEARCH FOUNDATION, INC., priority 2018, dated 2025):

Assays:
Nrf2 = Nrf2 expression, nuclear translocation and target genes; type: cell-based, human; conditions: for NQO1 expression in HT29 cells: 50 μM; for Nrf2 mRNA and protein levels / Nrf2 nuclear translocation: HT29, 50 μM; for Nrf2 nuclear translocation: 6 h
Protocol: Real time PCR: Total RNA was isolated from cells/tissue using Maxwell® 16 LEV simplyRNA tissue kit (Promega) and reverse transcribed with TaqManC Reverse transcription Kit (Applied Biosystems, CA, USA). The transcribed cDNA (after dilution) was mixed with 100 nM gene specific primers (Real time primers LLC) and 1×SYBR green reaction mix (Power SYBR® Green PCR Master Mix; Applied Biosystems, CA, USA). Changes in gene expression was analyzed using CFX96™ Real-Time System (Bio Rad) and fold change in expression was calculated using 2^ΔΔCT method using GAPDH/0-actin as house keeping gene and normalized with untreated control.
Immunoblots (Western blots): The total protein lysates were collected either from colon tissue/cells using radioimmunoprecipitation assay (RIPA) buffer (Sigma-Aldrich, USA) and quantified using BCA protein quantification kit (Thermo Scientific) as per instructional manual. Total protein (20-50 μg) of was resolved on NuPAGE™ 4-12% Bis-Tris gel (Novex Life technologies) and transferred to polyvinylidene difluoride membrane (0.22 μm pore; Millipore, USA). After blocking with 5% (w/v) skim milk powder (containing 1×TBS) for 1 h, the membrane was then incubated with respective antibodies at 4° C. overnight (dilutions of respective antibodies is given in Table A1). Next day, respective secondary antibody conjugated with Horseradish peroxidase were probed and the chemiluminescent substrate was used to detect the protein bands (ImageQuant LAS 4000). Densitometry analysis of bands were done using ImageJ software. Antibodies for Cldn4, Ocln, Cldn1, Cyp1A1, AhR, HO1, NQO1, Keap1, β-actin and Lamin B were purchased from Santa Cruz Biotechnologies (USA) and Nrf2 from Novus Biologicals (USA).
Confocal Imaging: HT29 or CaCo2 or BMDM cells (50,000 cells/well) were plated on to 8-well chambered slides (154534PK; ThermoFisher Scientific) allowed them to grow overnight. The cells were induced with vehicle (0.01% DMSO) or UroA (50 μM) or UAS03 (50 μM) for desired time points and fixed with cold methonol. The AhR or Nrf2 or Cldn4 stained with respective antibodies (1:200 dilution) followed by fluorecently labelled (Alexa flour 594 for AhR and Alexa flour 488 for Nrf2 and Cldn4) secondary ab (1:500 dilution; ThermoFisher Scientific). The nucleus was stained with DAPI (Sigma Aldrich). The confocal images were captured using Nikon AIR confocal microscope using 60× magnification lense with appropriate laser channels.

C57BL/6 mice = experiment: TNBS-induced colitis; type: in vivo, mouse; conditions: for H&E analysis of colon sections / TNBS-induced body weight loss / TNBS-induced colon shortening / TNBS-induced downregulation of Cldn4 in colons / colon weight to length ratio / disease activity index (DAI) score / neutrophil infiltration (myeloperoxidase (MPO) activity) / serum inflammatory markers IL-6, TNF-α, CXCL1 and IL-10: oral 20 mg/kg at 12 h intervals; for loss of body weight, single treatment / TNBS-induced colitis, single treatment: single oral treatment at 4 or 20 mg/kg; for TNBS-induced colitis, single treatment: 12 h post TNBS
Protocol: 2,4,6-Trinitrobenzenesulfonic acid (TNBS)-induced colitis: Male C57BL/6 or Nrf2^−/− mice (6-8 week old age mice) were anesthetized with ketamine/xylazine (100 mg/12.5 mg/kg IP) mixture and administered with single dose of TNBS (2.5 mg/mice; Sigma Aldrich, USA) in 50% ethanol. After administration of TNBS, mice were held upside down for 30-60 sec to ensure proper distribution of TNBS in the colon. Control group received 50% ethanol without TNBS. Mice with TNBS were randomly divided into three groups, viz. vehicle (0.25% sodium carboxymethylcellulose (CMC)), UroA and UAS03. UroA or UAS03 was resuspended in 0.25% sodium-CMC at desired concentrations. The mice were given orally Veh or UroA or UAS03 in 100 μl at desired concentrations (4 or 20 mg/kg/body weight). The treatment started after 12 hours of TNBS administration and every 12 hours thereafter up to 72 hours. The experiment was terminated post 60 h TNBS, where AhR^−/− mice were involved. In some experiments, we treated only once at post 12 h TNBS administration. TNBS administered and control mice were euthanized for tissue and plasma collection after 80 hours of TNBS/ethanol treatment. Mice were examined for colitis phenotype.
Assessment of colitis severity and tissue collection: Mice were evaluated daily for change in body weight, stool consistency and rectal bleeding and score was given and combined to obtained disease activity index (MURTHY et al., (1993) “Treatment of dextran sulfate sodium-induced murine colitis by intracolonic cyclosporin” Dig Dis Sci, Vol. 38, pp. 1722-1734). After euthanasia, the colon was removed and flushed with PBS containing (1 mM PMSF and 0.2 mM sodium orthovanadate). Colon length and colon weight were measured and small parts of colon were excised for myeloperoxidase (MPO) activity and RNA isolation. Tissues for MPO and RNA extraction were snap frozen in liquid nitrogen and stored in −80° C. until further analysis. Tissue for histological examination was stored in 10% phosphate buffered saline formalin. Blood was collected and serum was separated by centrifugation at 3500×g for 15 min. Serum cytokines (IL-6, TNF-α; Biolegend) and chemokines (CXCL1; R&D Systems) levels were measured by ELISA according to manufacturer's instructions.
In vivo intestinal permeability assay: The gut barrier function was evaluated by in vivo intestinal permeability using FITC-Dextran (MW 4000; FD4, Sigma-Aldrich, USA) (FURUTA et al., (2001) “Hypoxia-inducible factor 1-dependent induction of intestinal trefoil factor protects barrier function during hypoxia” J Exp Med, Vol. 193, pp. 1027-1034). Briefly, mice were orally administered with FITC-dextran (60 mg/100 gm body weight). Mice were fasted for 4 h prior to euthanization. The FITC-dextran concentration in serum was determined using the standard curve of FITC-dextran in serum (excitation, 485 nm; emission, 525 nm; BMG LABTECH).
Myeloperoxidase (MPO) activity: The MPO activity in the colons was determined using the following procedure (KIM et al. (2012) “Investigating intestinal inflammation in DSS-induced model of IBD” J Vis Exp, Vol. 60, Article e3678 (6 pages)). Briefly, colon tissue was homogenized in 0.5% (w/v) hexadecyltrimethylammonium bromide (H6269; Sigma-aldrich, USA) in 50 mM PBS, pH 6.0. This homogenate underwent 3 freeze-thaw cycles and 10-15 sec sonication to obtain homogenous suspension. The supernatant from this suspension was collected after centrifiguaton at 13000×g for 20 min at 4° C. The supernatant (10 μl) was then added to 50 mM potassium phosphate buffer (pH 6.0) containing 0.167 mg/ml o-dianisidine (Sigma-Aldrich, USA) and 0.0005% H2O2(Sigma-Aldrich USA) and absorbance was taken at 450 nm (BMG, LABTECH) at 2 min interval. […]

SMILES | NQO1 expression in HT29 cells (Nrf2) | Nrf2 mRNA and protein levels (Nrf2) | Nrf2 nuclear translocation (Nrf2) | H&E analysis of colon sections (C57BL/6 mice) | TNBS-induced body weight loss (C57BL/6 mice) | TNBS-induced colon shortening (C57BL/6 mice) | TNBS-induced downregulation of Cldn4 in colons (C57BL/6 mice) | colon weight to length ratio (C57BL/6 mice) | disease activity index (DAI) score (C57BL/6 mice) | neutrophil infiltration (myeloperoxidase (MPO) activity) (C57BL/6 mice) | serum inflammatory markers IL-6, TNF-α, CXCL1 and IL-10 (C57BL/6 mice) | loss of body weight, single treatment (C57BL/6 mice) | TNBS-induced colitis, single treatment (C57BL/6 mice)
Oc1ccc2c(c1)COc1cc(O)ccc1-2 [UAS03, 6H-benzo[c]chromene-3,8-diol] | induced NQO1 expression | upregulated Nrf2 | induced its nuclear translocation | less tissue damage and inflammation scores | protected | protected from TNBS-induced colon shortening | protected from TNBS-induced downregulation of Cldn4 | reduced weight to length ratio | reduced | reduced neutrophil infiltration | reduced | did not reach significance | mitigated TNBS-induced colitis
O=c1oc2cc(O)ccc2c2ccc(O)cc12 [UroA, 3,8-dihydroxy-6H-dibenzo[b,d]pyran-6-one] | induced NQO1 expression | upregulated Nrf2 | induced its nuclear translocation | less tissue damage and inflammation scores | protected | protected from TNBS-induced colon shortening | protected from TNBS-induced downregulation of Cldn4 | reduced weight to length ratio | reduced | reduced neutrophil infiltration | reduced | did not reach significance | mitigated TNBS-induced colitis
